According to publication PMC8541342, “Expression, Purification and Refolding of a Human NaV1.7 Voltage Sensing Domain with Native-like Toxin Binding Properties” (Toxins, 2021):
Entries after “also recorded” stand apart in the source; their conditions may differ.

Legend:
mice = conditions: ref [9]; cited from earlier work
From the text: This system opens up possibilities for detailed biophysical studies of binding interactions with toxins and other drug candidates for the development of new non-addictive pain therapeutics targeting NaV1.7. In addition, because the protein is expressed in E. coli, it also enables the preparation of isotope-labeled samples or the introduction of unnatural amino acids for structural and functional studies.

full-length NaV1.7 = conditions: cited from earlier work
[1] = system: F813A and D816A mutants of NaV1.7 VSD2 in DMPC vesicles; assay: MST binding to mutant VSD2 compared with WT (overlay, Figure S6); set-up: species or system human; conditions: F813A and D816A vs WT VSD2 in DMPC
Experimental: (Supplementary Material, Figure S5). […] Lastly, it is additional confirmation that our recombinant system captures details of the interactions that correspond to those with full-length channel in native membranes.
The analysis of the MST binding titrations was carried out with the NanoTemper analy sis software, and the relative fluo-rescence measurements and fitted binding cur ves were combined into a single graph to illustrate the rightshift (lower binding affinity) in both mutants. Based on this analysis, both Phe 813 and Asp 816 appear to play an important role in […]

[2] = Dynamic light scattering particle size; format: physicochemical; conditions: DLS, VSD2 in DMPC ~40 μM, fixed-angle, 25 °C, spherical geometry assumed
Experimental: A Brookhaven NanoBrook series instrument was used to perform dynamic light scattering (DLS). The sample in this experiment was the VSD in DMPC solution prepared as described above at a concentration of ~40 μM. Sample was placed into a 1 cm quartz cuvette, and fixed-angle DLS was performed at 25 °C. Measurements of fixed-angle scattering were averaged over time intervals and, therefore, gave the correlation function, which in turn yielded the particle size distribution (assuming exponential correlation), reported as diameter in nm. This processing was done using the NanoBrook instrument analysis software. Particle size analysis assumes spherical geometry.

Molecule: CC[C@H](C)[C@@H]1NC(=O)[C@@H]2CSSC[C@@H]3NC(=O)[C@H](C(C)C)NC(=O)[C@H](CC(C)C)NC(=O)[C@H](CC(N)=O)NC(=O)[C@@H]4CCCN4C(=O)[C@H](CCCNC(=N)N)NC(=O)[C@H](CSSC[C@H](NC(=O)[C@@H](N)CC(=O)O)C(=O)N[C@@H](CC(C)C)C(=O)NCC(=O)N[C@@H](Cc4ccccc4)C(=O)N[C@@H](CCSC)C(=O)N[C@@H](CCCNC(=N)N)C(=O)N[C@@H](CCCCN)C(=O)N2)NC(=O)[C@H](CSSC[C@@H](C(=O)N[C@@H](CCCCN)C(=O)N[C@@H](Cc2ccc(O)cc2)C(=O)N[C@H](C(=O)N[C@@H](Cc2ccccc2)C(=O)O)C(C)C)NC(=O)[C@H](Cc2c[nH]c4ccccc24)NC(=O)[C@H](CCCCN)NC(=O)[C@H](Cc2c[nH]cn2)NC(=O)[C@H]([C@@H](C)O)NC(=O)[C@H](CCCNC(=N)N)NC(=O)[C@H](CO)NC3=O)NC(=O)[C@H](CCCCN)NC(=O)[C@H](CC(=O)O)NC(=O)[C@H](CC(N)=O)NC(=O)[C@H](CC(=O)O)NC(=O)[C@@H]2CCCN2C1=O [GpTx-I]
- analgesic effects in mice (in words) (mice): analgesic effects superior to morphine in mice; also recorded: exhibits analgesic effects in mice
- IC50 (full-length NaV1.7): 10 nM
- change in binding affinity for mutants (in words) [1]: decreases in GpTx-I binding affinity; also recorded: substantial reduction in binding affinity

B1: VSD2/DMPC complex: recombinant refolded NaV1.7 VSD of repeat II, residues 732–860 (UniProt ID Q15858-3), reconstituted into DMPC vesicles (protein)
chain: DPFVDLAITICIVLNTLFMAMEHHPMTEEFKNVLAIGNLVFTGIFAAEMVLKLIAMDPYEYFQVGWNIFDSLIVTLSLVELFLADVEGLSVLRSFRLLRVFKLAKSWPTLNMLIKIIGNSVGALGNLTL
- mean particle diameter / size distribution maximum [2]: roughly 80 nm
